Laboratory results reported in PubChem BioAssay (NCI).
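A five-concentration, 48-hour dose response in 96-well plates underlies each endpoint, interpolated linearly between surrounding concentrations. At the GI50, growth is halved. The concentration for full growth arrest is given as TGI.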

Assays:
Experiment in all cases: NCI anticancer screen, dose series, 48 h
SNB-19 CNS = test system: SNB-19 CNS
A498 renal = test system: A498 renal
HCC-2998 colon = test system: HCC-2998 colon
LOX IMVI melanoma = test system: LOX IMVI melanoma
M14 melanoma = test system: M14 melanoma
MOLT-4 leukemia = test system: MOLT-4 leukemia
TK-10 renal = test system: TK-10 renal
SK-OV-3 ovarian = test system: SK-OV-3 ovarian
OVCAR-3 ovarian = test system: OVCAR-3 ovarian
PC-3 prostate = test system: PC-3 prostate

Row | Structure (SMILES) | TGI (SNB-19 CNS) [µM] | TGI (A498 renal) [µM] | TGI (HCC-2998 colon) [µM] | TGI (LOX IMVI melanoma) [µM] | TGI (M14 melanoma) [µM] | TGI (MOLT-4 leukemia) [µM] | TGI (TK-10 renal) [µM] | TGI (SK-OV-3 ovarian) [µM] | TGI (OVCAR-3 ovarian) [µM] | GI50 (SNB-19 CNS) [µM] | GI50 (PC-3 prostate) [µM] | TGI (PC-3 prostate) [µM] | GI50 (LOX IMVI melanoma) [µM] | GI50 (M14 melanoma) [µM] | GI50 (MOLT-4 leukemia) [µM] | GI50 (TK-10 renal) [µM] | GI50 (SK-OV-3 ovarian) [µM] | GI50 (OVCAR-3 ovarian) [µM]
1 | CCCCC(C(=O)CCC(=O)Nc1ccc(Cl)cc1)C(=O)C(C)C (stereo unspecified) | > 100 | > 100 | > 100 | > 100 | > 100 | > 100 | > 100 | > 100 | > 100 | – | – | – | – | – | – | – | – | –
2 | Cn1cnc([N+](=O)[O-])c1Sc1nc2ccc([N+](=O)[O-])cc2[nH]1 | > 100 | 83.4 | 29.2 | 60.1 | > 100 | 47.7 | 59.3 | 62.5 | > 100 | – | – | – | – | – | – | – | – | –
3 | CC(=O)C(C=O)C(C)=O.CC(=O)CC(C)=O.CC(=O)CC(C)=O.[Ru] | > 100 | – | – | 80.3 | > 100 | > 100 | > 100 | > 100 | 26.3 | 52.1 | 13.2 | 71.2 | 13.6 | 49.4 | 28.6 | 38.9 | 76.8 | 2.15
4 | NC(=O)c1ncn(Cc2ccccc2)c1CNC(N)=S | > 100 | – | > 100 | > 100 | > 100 | > 100 | > 100 | > 100 | > 100 | – | – | – | – | – | – | – | – | –
5 | O=C1CC[C@@H](NC(=O)Cc2ccccc2)C(=O)N1 | > 100 | > 100 | > 100 | > 100 | > 100 | > 100 | > 100 | > 100 | > 100 | – | – | – | – | – | – | – | – | –
6 | Cc1ccc(S(=O)(=O)CC2(Br)CCc3ccccc3C2=O)cc1 (stereo unspecified) | > 100 | 95 | – | > 100 | > 100 | > 100 | 85.7 | > 100 | > 100 | – | – | > 100 | – | – | – | – | – | –
7 | Nc1nc2ncn(CC(O)COC(=O)c3ccccc3)c2c(=O)[nH]1 (stereo unspecified) | – | > 100 | – | > 100 | > 100 | – | > 100 | > 100 | > 100 | – | – | – | – | – | – | – | – | –
8 | ClCCCCOC1CCCCO1 (stereo unspecified) | > 100 | > 100 | > 100 | – | > 100 | > 100 | > 100 | > 100 | > 100 | – | – | – | – | – | – | – | – | –
9 | c1ccc2c(c1)N=C(c1ccc3ccccc3c1)CC(c1cccc3ccccc13)S2 (stereo unspecified) | > 100 | 75.4 | 40.3 | > 100 | > 100 | 44.2 | > 100 | > 100 | > 100 | – | – | – | – | – | – | – | – | –
10 | N=C1/C(=C2\Nc3ccccc3S2)CC(=O)N1c1ccc(SC(F)F)cc1 | > 100 | – | – | > 100 | > 100 | > 100 | > 100 | > 100 | > 100 | 29.1 | 3.55 | 93.5 | 2.21 | 33.2 | 1.42 | 22 | 8.6 | 17.1
11 | N#Cc1cn(-c2c3ccccc3nc3ccccc23)c(=O)[nH]c1=O | 90.7 | – | – | 21.2 | 28.5 | 22.6 | > 100 | 33.1 | 35.6 | – | – | – | – | – | – | – | – | –
12 | CC1CC(c2ccc(Cl)c(Cl)c2)=Nc2ccccc2S1 (stereo unspecified) | > 100 | > 100 | > 100 | > 100 | > 100 | > 100 | > 100 | > 100 | > 100 | – | – | – | – | – | – | – | – | –
13 | Cc1ccc2nc3c(C)cc(=O)cc-3sc2c1 | > 100 | – | 70.9 | – | 42.4 | 38.9 | 49.8 | > 100 | 55.2 | – | – | – | – | – | – | – | – | –
14 | NCC1(N2CCOCC2)C2CCCC21CNc1ccccc1 (stereo unspecified) | > 100 | – | > 100 | > 100 | > 100 | > 100 | > 100 | – | > 100 | – | – | – | – | – | – | – | – | –
15 | CN1CCc2cc3c4cc2C1Cc1ccc(cc1)Oc1cc(ccc1O)CC1c2c(cc(O)c(c2O4)O3)CCN1C (stereo unspecified) | 7.38 | – | 4.11 | 3.23 | 3.26 | 10.2 | 31 | 9 | 11.5 | – | – | – | – | – | – | – | – | –
16 | O=C(NC1C(=O)NNC1c1ccccc1Cl)c1ccccc1 (stereo unspecified) | > 100 | > 100 | > 100 | > 100 | > 100 | > 100 | > 100 | > 100 | > 100 | – | – | – | – | – | – | – | – | –
